Laboratory results reported in patent US20100137275A1 (IPSEN PHARMA S.A.S., priority 2007, published 2010).

Key:
[1] = target: T1, purified recombinant Cdc25-C enzyme (MBP-Cdc25C protein) (Homo sapiens, UniProt P30307); test: Phosphatase activity of the purified recombinant Cdc25C enzyme (OMFP dephosphorylation, fluorescence); assay type: biochemical; conditions: OMFP 500 μM, 4 hours at 30° C.
T1 construct: made in house
T1 sequence (P30307 1-473): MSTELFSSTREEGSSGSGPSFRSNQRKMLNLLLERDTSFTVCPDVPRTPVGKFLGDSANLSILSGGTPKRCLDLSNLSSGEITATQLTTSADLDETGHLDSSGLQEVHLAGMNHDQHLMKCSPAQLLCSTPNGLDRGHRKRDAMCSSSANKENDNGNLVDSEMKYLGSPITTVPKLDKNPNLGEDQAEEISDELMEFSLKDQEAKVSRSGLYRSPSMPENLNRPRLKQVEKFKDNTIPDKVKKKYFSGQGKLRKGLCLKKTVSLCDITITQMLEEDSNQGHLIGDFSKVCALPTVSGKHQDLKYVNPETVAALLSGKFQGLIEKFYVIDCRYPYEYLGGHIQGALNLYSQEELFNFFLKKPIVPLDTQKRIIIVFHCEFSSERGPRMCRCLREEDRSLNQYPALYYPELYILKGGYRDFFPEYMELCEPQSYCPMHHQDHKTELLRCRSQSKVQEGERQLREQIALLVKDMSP
Procedure, shortened: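 MBP-Cdc25C fusion protein in 50 mM Tris-HCl pH 8.2, 50 mM NaCl, 1 mM DTT, 20% glycerol; reaction started with 500 μM OMFP (final). Compounds tested at decreasing concentrations from 40 μM; 4 h at 30 °C, OMF fluorescence read at 475 nm. IC50 from three independent experiments by linear regression over the linear part of the sigmoid.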

[2] = test system: Mia-PaCa2 (human pancreas cancer cells); test: Anti-proliferative activity on Mia-Paca2 cell line (WST1 colorimetric test); assay type: cell-based; conditions: MIA PaCa-2, 96 h, 96 hours treatment, read-out: IC50 on proliferation of the Mia-Paca2 cell line
Method: (§1) By way of an example, the effect of treating two human cell lines Mia-Paca2 and DU145 with the compounds of the examples described hereinbefore will be studied. The cell lines DU145 (human prostate cancer cells) and Mia-PaCa2 (human pancreas cancer cells) were obtained from the American Tissue Culture Collection (Rockville, Md., USA). A 96-well plate was inoculated on day 0 with cells placed in 80 μl of Dulbecco's modified Eagle's medium (Gibco-Brl, Cergy-Pontoise, France) with 10% heat-inactivated foetal calf serum (Gibco-Brl, Cergy-Pontoise, France), 50000 units/1 of penicillin and 50 mg/l of streptomycin (Gibco-Brl, Cergy-Pontoise, France), and 2 mM of glutamine (Gibco-Brl, Cergy-Pontoise, France). The cells were treated on day 1 with increasing concentrations of each test compound up to 10 μM for 96 hours. At the end of this period, cell proliferation is quantified by means of a colorimetric test based on cleavage of the tetrazolium salt WST1 by the mitochondrial dehydrogenases in the viable cells, resulting in formation of formazan (Boehringer Mannheim, Meylan, France). These tests are performed in duplicate with 8 determinations per concentration tested. For each compound to be tested, the values within the linear part of the sigmoid curve were subjected to linear regression analysis and used to estimate the IC50 inhibitory concentration. The products are solubilised in dimethylsulfoxide (DMSO) at a concentration of 10^−2 M and used in culture with a final DMSO concentration of 0.1%.

[3] = test system: DU145 (human prostate cancer cells); test: Anti-proliferative activity on DU-145 cell line (WST1 colorimetric test); assay type: cell-based; conditions: DU-145, 96 h, 96 hours treatment, read-out: IC50 on the proliferation of the DU-145 cell line
Method: as §1

| Structure (SMILES) | IC50 [1] | IC50 [2] | IC50 [3] | melting point |
| --- | --- | --- | --- | --- |
| CN(CCNC(=S)Nc1ccc(S(=O)(=O)Nc2ccccc2)cc1)CCNc1cc(N2CCCC2)nc(N2CCCC2)n1 [Example 62, 4-{[({2-[{2-[(2,6-dipyrrolidin-1-ylpyrimidin-4-yl)amino]ethyl}(methyl)amino]ethyl}amino)carbonothioyl]amino}-N-phenylbenzenesulfonamide] | ≤ 1 µM | ≤ 5 µM | ≤ 5 µM | 146 to 148 °C |
| CN(CCNC(=S)Nc1ccc(Cl)nc1)CCNc1cc(N2CCCC2)nc(N2CCCC2)n1 [Example 53, N-(6-chloropyridin-3-yl)-N′-{2-[{2-[(2,6-dipyrrolidin-1-ylpyrimidin-4-yl)amino]ethyl}(methyl)amino]ethyl}thiourea] | ≤ 1 µM | ≤ 5 µM | ≤ 5 µM | 96 to 98 °C |
| CN(CCNC(=O)Nc1ccc(Cl)c(Cl)c1)CCNc1cc(N2CCCC2)nc(N2CCCC2)n1 [Example 17, N-(3,4-dichlorophenyl)-N′-{2-[{2-[(2,6-dipyrrolidin-1-ylpyrimidin-4-yl)amino]ethyl}(methyl)amino]ethyl}urea] | ≤ 1 µM | ≤ 5 µM | ≤ 5 µM | 138 to 139 °C |
| CN(CCNC(=S)Nc1ccc(S(=O)(=O)c2ccc(Br)cc2)cc1)CCNc1cc(N2CCCC2)nc(N2CCCC2)n1 [Example 60, N-{4-[(4-bromophenyl)sulfonyl]phenyl}-N′-{2-[{2-[(2,6-dipyrrolidin-1-ylpyrimidin-4-yl)amino]ethyl}(methyl)amino]ethyl}thiourea] | ≤ 1 µM | ≤ 5 µM | ≤ 5 µM | 118 to 120 °C |
| CN(CCNC(=S)Nc1ccc(Cl)cc1)CCNc1cc(N(C)C)nc(N(C)C)n1 [Example 73, N-{2-[(2-{[2,6-bis(dimethylamino)pyrimidin-4-yl]amino}ethyl)(methyl)amino]ethyl}-N′-(4-chlorophenyl)thiourea] | ≤ 5 µM | ≤ 5 µM | ≤ 5 µM | 127 to 129 °C |
| CN(CCNC(=O)Nc1ccc(Cl)cc1)CCNc1cc(N2CCCC2)nc(N2CCCC2)n1 [Example 16, N-(4-chlorophenyl)-N′-{2-[{2-[(2,6-dipyrrolidin-1-ylpyrimidin-4-yl)amino]ethyl}(methyl)amino]ethyl}urea] | ≤ 1 µM | ≤ 5 µM | ≤ 5 µM | 71 to 73 °C |
| O=C(NCCCCCNc1cc(N2CCCC2)nc(N2CCCC2)n1)Nc1ccc(Cl)cc1 [Example 19, N-(4-chlorophenyl)-N′-{5-[(2,6-dipyrrolidin-1-ylpyrimidin-4-yl)amino]pentyl}urea] | ≤ 1 µM | ≤ 5 µM | ≤ 5 µM | 192 to 193 °C |
| CN(CCNC(=S)Nc1cccnc1Oc1ccc(F)cc1F)CCNc1cc(N2CCCC2)nc(N2CCCC2)n1 [Example 47, N-[2-(2,4-difluorophenoxy)pyridin-3-yl]-N′-{2-[{2-[(2,6-dipyrrolidin-1-ylpyrimidin-4-yl)amino]ethyl}(methyl)amino]ethyl}thiourea] | ≤ 1 µM | ≤ 5 µM | ≤ 5 µM | 108 to 110 °C |
| CN(CCNC(=S)Nc1ccc(S(=O)(=O)N2CCCCC2)cc1)CCNc1cc(N2CCCC2)nc(N2CCCC2)n1 [Example 27, N-{2-[{2-[(2,6-dipyrrolidin-1-ylpyrimidin-4-yl)amino]ethyl}(methyl)amino]ethyl}-N′-[4-(piperidin-1-ylsulfonyl)phenyl]thiourea] | ≤ 5 µM | ≤ 5 µM | ≤ 5 µM | 120 to 122 °C |
| CN(CCNC(=S)Nc1ccc(-n2cccn2)cc1)CCNc1cc(N2CCCC2)nc(N2CCCC2)n1 [Example 48, N-{2-[{2-[(2,6-dipyrrolidin-1-ylpyrimidin-4-yl)amino]ethyl}(methyl)amino]ethyl}-N′-[4-(1H-pyrazol-1-yl)phenyl]thiourea] | ≤ 5 µM | ≤ 5 µM | ≤ 5 µM | 116 to 118 °C |
| COc1cc(NC(=S)NCCN(C)CCNc2cc(N3CCCC3)nc(N3CCCC3)n2)cc(OC)c1OC [Example 38, N-{2-[{2-[(2,6-dipyrrolidin-1-ylpyrimidin-4-yl)amino]ethyl}(methyl)amino]ethyl}-N′-(3,4,5-trimethoxyphenyl)thiourea] | ≤ 1 µM | ≤ 5 µM | ≤ 5 µM | 109 to 111 °C |
| CN(CCNC(=S)NCc1ccc(F)cc1)CCNc1cc(N2CCCC2)nc(N2CCCC2)n1 [Example 46, N-{2-[{2-[(2,6-dipyrrolidin-1-ylpyrimidin-4-yl)amino]ethyl}(methyl)amino]ethyl}-N′-(4-fluorobenzyl)thiourea] | ≤ 1 µM | ≤ 5 µM | ≤ 5 µM | 64 to 66 °C |
| CN(CCNc1cc(N2CCCC2)nc(N2CCCC2)n1)CCNS(=O)(=O)c1ccc(C(F)(F)F)cc1 [Example 89, N-{2-[{2-[(2,6-dipyrrolidin-1-ylpyrimidin-4-yl)amino]ethyl}(methyl)amino]ethyl}-4-(trifluoromethyl)benzenesulfonamide] | ≤ 5 µM | ≤ 5 µM | ≤ 5 µM | 140 to 142 °C |
| CN(CCNC(=S)Nc1ccc(Cl)cc1)CCNc1cc(N2CCC2)nc(N2CCC2)n1 [Example 75, N-(4-chlorophenyl)-N′-{2-[{2-[(2,6-diazetidin-1-ylpyrimidin-4-yl)amino]ethyl}(methyl)amino]ethyl}thiourea] | – | ≤ 5 µM | ≤ 5 µM | 146 to 148 °C |
| CN(CCNC(=O)Nc1cccc2nsnc12)CCNc1cc(N2CCCC2)nc(N2CCCC2)n1 [Example 15, N-2,1,3-benzothiadiazol-4-yl-N′-{2-[{2-[(2,6-dipyrrolidin-1-ylpyrimidin-4-yl)amino]ethyl}(methyl)amino]ethyl}urea] | ≤ 1 µM | ≤ 5 µM | ≤ 5 µM | 126 to 128 °C |
| CN(CCNC(=S)Nc1ccccc1F)CCNc1cc(N2CCCC2)nc(N2CCCC2)n1 [Example 42, N-{2-[{2-[(2,6-dipyrrolidin-1-ylpyrimidin-4-yl)amino]ethyl}(methyl)amino]ethyl}-N′-(2-fluorophenyl)thiourea] | ≤ 5 µM | ≤ 5 µM | ≤ 5 µM | 105 to 107 °C |
| CN(CCNc1cc(N2CCCC2)nc(N2CCCC2)n1)CCNS(=O)(=O)c1cccc(C(F)(F)F)c1 [Example 88, N-{2-[{2-[(2,6-dipyrrolidin-1-ylpyrimidin-4-yl)amino]ethyl}(methyl)amino]ethyl}-3-(trifluoromethyl)benzenesulfonamide] | ≤ 5 µM | ≤ 5 µM | ≤ 5 µM | 203 to 205 °C |
